Data from patent US5962418A, “Factor VII-derived peptides” (Nycomed Imaging A/S, priority 1993, dated 1999).
Where a SMILES comes first, the peptide text is derived from it. Bridges are numbered along the chain shown (N, C = ends).

Tests used:
[1] = target: FVII binding to immobilized rTF (Homo sapiens, UniProt P13726); experiment: ELISA assay of inhibition of FVII binding to immobilized rTF; conditions: for inhibition at 500 µM: peptide 0.5 mM
Procedure: FIG. 13 ELISA assay of the inhibition of FVII binding to immobilized rTF produced by synthetic FVII peptides (all at 0.5 mM). For peptide sequences see the table of peptides below (page 19). C and L denote the cyclic and linear forms respectively of peptides with terminal cysteines.
The inhibition results shown in FIG. 13 indicate that in addition to sequences from the "hinge" region (i.e. residues 41-48 between the GLA domain and the first EGF domain, […]) and from the first EGF domain itself (i.e. residues 50-61; Clarke et al), there exist additional sequences in the second EGF domain (especially 95-104) which are inhibitors when presented as peptides in this binding assay.

[2] = target: T1, tissue factor (TF) expressed on the surface of living cells (Homo sapiens, UniProt P13726); experiment: Assay of cell-surface TF initiated coagulation of plasma (microcarrier coagulation assay); type: cell-based; conditions: peptide 0.5 mM
T1 construct: induced by tissue factor (TF) expressed on the surface of living cells; endogenous in cells; host or cells: living cells on Cytodex-3 microcarriers (e.g. human HT-1080 or ECV-304)
Procedure: FIGS. 9A-9C Principle of the microcarrier assay of cell-surface mediated coagulation of blood plasma. Living cells (e.g., human HT-1080 fibrosarcoma; ATCC CRL 121) adherent on the surface of microcarriers are mixed with a calcium-containing buffer and plasma in the incubation well of a Thrombotrack™ electromagnetic coagulometer (Nycomed). The clotting time is measured by the increase in resistance to movement of a magnetic ball produced by the formation of fibrin fibres. HT-1080 cells adherent on Cytodex-3 microcarriers are shown in FIG. 9C as an example of the types of cells expressing TF which may be used.
Assay of Cell-surface TF Initiated Coagulation of Plasma
A novel assay system has been devised to measure the coagulation of blood plasma (i.e. clotting time) induced by tissue factor (TF) expressed on the surface of living cells. This assay makes use of human or animal cells adherent on the surface of microcarriers (see FIG. 9), which enables reproducible presentation of known amounts of TF activity in the stirred measuring well of an electromagnetic coagulometer. The cells used may be normal or transformed, and representing phenotypes such as monocytes, endothelium, fibroblasts etc (see FIG. 10).
This novel assay has been particularly developed and characterised so as to be highly useful in determining the effect of synthetic peptides and peptidomimetic compounds on the extrinsic pathway of coagulation, using living cells in a plasma milieu. Results for the inhibitory effect of synthetic peptides based upon the amino acid sequence of human FVII are disclosed.
The microcarrier cell preparation is made as follows. Cells obtained from primary isolates or subcultures of transformed lines (see FIG. 10) are suspended in a small volume of serum-containing medium and mixed with microcarriers (Cytodex-3, Pharmacia) in a ratio of about 50-100 cells/microcarrier. The cells are usually adhere nt on the microcarriers within 2 hours, and can then be transferred to normal roller bottles with a larger volume of culture medium. Uniform coverage of microcarriers with about 20-60 cells can be obtained directly with transformed cells, when large cell numbers are available, or after 2 days growth when primary cultures (e.g. umbilical vein endothelial cells) are used. […]
To assay the extrinsic coagulation activity, the microcarrier cell preparations are first washed with a calcium-free buffer to remove bound serum factors. A calcium-containing buffer and plasma are then added and the clotting time is determined automatically in an electromagnetic coagulometer. […]

FVIIa/TF = target: T2, FVIIa/TF (Homo sapiens, UniProt P13726); experiment: Kinetics of inhibition of FX activation (assay of FVIIa/TF activity); type: biochemical; conditions: varying FVII-5 and Factor X concentrations
T2 construct: purchased Behringwerk (TF, Thromborel); Diagnostica Stago (FVIIa)
Procedure: Peptides (0-1 mM) were preincubated in 0.1 M Tris.HCl pH 7.2 with tissue factor (Thromborel®, Behringwerk, Marburg, Germany; 0.2% final concentration) at 22° C. for 30 minutes, then Factor X (American Diagnostica Inc., Greenwich, Conn. USA; 70 nM was added followed by FVIIa (Diagnostica Stago, Asnieres, France; 8 pM and CaCl2 (5 mM). Incubations were continued for 30 minutes and quenched with EDTA (50 mM) which removes essential Ca^2+. The FXa produced was quantified by monitoring hydrolysis of the chromegenic FX substrate S-2222 (Chromogenix,Molndal, Sweden).
The kinetics of inhibition of FX activation by FVII-5 was investigated. Varying concentrations of FVII-5 were incubated with different concentrations of Factor X in the presence or absence of TF and FVIIa.

[3] = target: T3, purified human FVIIa bound to recombinant human TF (apoTF/FVIIa) (Homo sapiens, UniProt P13726); experiment: Assay of apoTF/FVIIa catalytic (amidolytic) activity; type: biochemical; conditions: for IC50: read-out: IC50, Amidolytic apo TF Assay
T3 construct: purchased American Diagnostica (TF); Enzyme Research Laboratories (FVIIa) 4500 (TF); HFVlla (FVIIa)
Procedure: Assay of apoTF/FVIIa Catalytic Activity
This […] assay was used to measure directly the amidolytic (catalytic) activity of purified human FVIla when bound to recombinant human TF in the absence of phospholipid.
Reactions were performed in microtitre plate wells, using a final incubation volume of 200 uL. Test compounds, dissolved in water, (final concentration, 0-1 mM) were preincubated with recombinant human tissue factor (American Diagnostica, cat# 4500; 5 nM) and CaCl2 (5 mM) in Tris buffer (100 mM), pH 7.2, containing NaCl (150 mM) and BSA (1 mg/mL) at ambient temperature for 30 minutes. Factor Vlla (Enzyme Research Laboratories, cat# HFVlla; 5 nM) was added and the incubations continued for 60 minutes. Chromogenic substrate, S2288 (Chromogenix cat# 820852; 0.5 mM) was then added and the enzymatic activity of the tissue factor apoprotein/factor VII complex (apoTF/FVlla) was monitored at 405 nm.

[4] = system: coagulation factors of the intrinsic and common pathways of coagulation; experiment: Coagulation assay initiated by contact activation (Cephotest); conditions: all coagulation factors other than TF/FVII
Source text: The effect of the peptides observed in the coagulation assay could conceivably have been due to effects on another one or more of the several components contributing to the coagulation cascade. This possibility was therefore tested by adding the peptides to coagulation assays which were initiated by contact activation (Cephotest™, Nycomed), and therefore involved coagulation factors of the intrinsic and common pathways of coagulation, i.e. all coagulation factors other than TF/FVII. […] Thus evidence was obtained that the effects observed in the TF/FVII initiated coagulation assay above were in fact due to a direct effect on the TF/FVII complex.

[5] = target: T4, native TF/FVIIa complex on the surface of HT-1080 cells (Homo sapiens, UniProt P13726); experiment: Assay of HT1080 cell surface TF/FVIIa mediated activation of FX (amidolytic microcarrier assay); type: cell-based
T4 construct: native TF/FVIIa complex on the surface of living cells expressing TF in their cell membrane; endogenous in cells; host or cells: HT-1080 human fibrosarcoma cells on Cytodex-3 microcarriers

[6] = target: Factor VII and tissue factor (Homo sapiens, UniProt P13726); conditions: Corvas Inc., Table 1 of WO90/03390; cited from earlier work
[7] = target: binding of Factor VII to tissue factor (Homo sapiens, UniProt P13726); experiment: Inhibition of FVII/TF binding or FVII activity, assay not specified (summary statements)
Chain of binding of Factor VII to tissue factor (P13726 33-295): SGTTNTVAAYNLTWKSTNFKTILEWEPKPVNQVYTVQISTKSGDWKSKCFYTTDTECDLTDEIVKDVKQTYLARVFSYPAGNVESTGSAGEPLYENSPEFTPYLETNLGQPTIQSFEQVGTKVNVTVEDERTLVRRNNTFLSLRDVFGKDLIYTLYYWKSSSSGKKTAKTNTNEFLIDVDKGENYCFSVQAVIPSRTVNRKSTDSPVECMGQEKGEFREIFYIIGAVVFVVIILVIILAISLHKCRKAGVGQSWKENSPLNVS

Chain of Factor VII and tissue factor (P13726 33-295, species assumed): as the sequence (P13726 33-295) above
T1 sequence (P13726 33-295): as above
Chain of FVII binding to immobilized rTF (P13726 33-295): as above
T3 sequence (P13726 33-295): as above
T4 sequence (P13726 33-295, one chain of several): as the sequence (P13726 33-295) above
T2 sequence (P13726 33-295): as above

Compound	inhibition at 500 µM [2]	Effect on contact-activated coagulation (specificity) [4]	Inhibition of activation of Factor X by Factor VII and tissue factor as reported in WO90/03390 [6]	Inhibitory activity, in words [7]	other results
CC(C)C[C@@H]1NC(=O)[C@@H](N)CSSC[C@@H](C(=O)O)NC(=O)[C@H](CC(N)=O)NC(=O)[C@H](CCCNC(=N)N)NC(=O)CNC(=O)[C@H](CCC(=O)O)NC(=O)[C@H](Cc2ccccc2)NC(=O)[C@H](C)NC(=O)[C@@H]2CCCN2C1=O [72-81(C)]	22%				inhibition at 500 µM [1]: 89%
CC(C)[C@@H]1NC(=O)[C@@H](N)CSSC[C@@H](C(=O)O)NC(=O)[C@H](Cc2ccc(O)cc2)NC(=O)[C@H](CCC(N)=O)NC(=O)[C@H](CCC(=O)O)NC(=O)[C@H](CS)NC(=O)CNC(=O)CNC(=O)[C@H](CC(N)=O)NC(=O)[C@H](CCC(=O)O)NC(=O)[C@H](CC(N)=O)NC1=O [91-102(C)] (H-CVNENGGCEQYC-OH; disulfide 1-12 (inferred))					Mode of inhibition of Factor X activation (FVIIa/TF): noncompetitive inhibition
CC(C)[C@H](NC(=O)[C@@H](N)CS)C(=O)N[C@@H](CC(N)=O)C(=O)N[C@@H](CCC(=O)O)C(=O)N[C@@H](CC(N)=O)C(=O)NCC(=O)NCC(=O)N[C@@H](CS)C(=O)N[C@@H](CCC(=O)O)C(=O)N[C@@H](CCC(N)=O)C(=O)N[C@@H](Cc1ccc(O)cc1)C(=O)N[C@@H](CS)C(=O)O [91-102(L)] (H-CVNENGGCEQYC-OH; N-terminus and C-terminus assumed)	14%				IC50 [1]: 60 µM; IC50 [3]: 1.14 mM
CC(C)C[C@@H]1NC(=O)[C@H](CC(C)C)NC(=O)[C@H](CO)NC(=O)[C@H](Cc2ccc(O)cc2)NC(=O)CNC(=O)[C@H](CCC(=O)O)NC(=O)[C@H](Cc2c[nH]cn2)NC(=O)[C@@H](N)CSSC[C@@H](C(=O)O)NC(=O)[C@H](CO)NC(=O)[C@H](C(C)C)NC(=O)CNC(=O)[C@H](CC(=O)O)NC(=O)[C@H](C)NC1=O [114-127(C)] (H-CHEGYSLLADGVSC-OH; disulfide 1-14)	44%				inhibition at 500 µM [1]: 77%; inhibition at 500 µM ([3]; peptide 0.5 mM, did not reach near-quantitative inhibition at 1 mM, read-out: % inhibition at 0.5 mM, Amidolytic apo TF Assay): 21%
Ac-SDHTGTKRS-NH2 [103-111]	30%	inactive			inhibition at 500 µM [1]: 59%; IC50 [3]: 2.2 mM; IC50 ([5]; HT-1080 cells on microcarriers): 870 µM
CHEGYSLLADGVSC [114-127, FVII residues 114-127]			zero inhibitory acticity	relatively active	
CLPAFEGRNC [72-81]			zero inhibitory acticity		Synergistic enhancement of the inhibitory action of peptides of the sequence 91 to 104 ([7]; in combination): acted synergistically
CVNENGGCEQYC [91-102, FVII residues 91-102]		inactive	zero inhibitory acticity	particularly active	
Hirudin [reference compound]		strongly inhibitory			
NGGCEQYCSD [95-104, FVII residues 95 to 104]		inactive		most active inhibitor so far tested	Inhibition of FVII binding to rTF, in words ([1]; peptides at 0.5 mM (FIG. 13)): inhibitors
SDHTGTKRSC [reference compound]			active	only moderate activity	Inhibitor of the binding of Factor VII to tissue factor, in words [7]: rather poor inhibitor
TAP: tick anticoagulant polypeptide; control inhibitor of FX (YNRLCIKPRDWIDECDSNEGGERAYFRNGKGGCDSFWICPEDHTGADYYSSYRDCFNACI; UniProt P17726 1-60, looked up) [reference compound]		strongly inhibitory			Inhibition of FXa amidolytic activity generated by HT-1080 cell-surface TF/FVIIa ([5]; HT-1080 cells): inhibition of activity
